# Measured values as given in patent US6465228B1, “Levodione reductase” (Roche Vitamins, Inc., priority 1999, dated 2002).
# “Also recorded” adds a separate entry of the source. Like-named read-outs stand apart in the source and are kept apart here.
# How the values were obtained:
# [1] = tested on: Corynebacterium aquaticum AKU611; experiment: Biolog System assimilation of carbon sources; assay type: cell-based; details: 96-well plate, BUGM+B medium, 24 hours at 28° C.
# Source text: Each well contained one of the 96 types of carbon sources in BUGM+B medium (Biolog Universal Growth Media+Blood) (Biolog Inc.).
# levodione reductase [2] = biological target: T1, levodione reductase (Leifsonia aquatica, UniProt Q9LBG2); experiment: Co-factor requirement / identification of reaction product; assay type: biochemical, Corynebacterium aquaticum AKU611; details: for function as co-factor / electron donor: reduction of levodione to actinol
# T1 construct: The LR is isolated and purified from the cell-free extract of disrupted cells; made in house; host or cells: Corynebacterium aquaticum AKU611 (FERM BP-6448); This is the natural producer and there was no recombinant expression; The enzyme was purified by ammonium sulfate precipitation and DEAE-Sephacel, alkyl Superose and MONO Q chromatography
# T1 sequence (Q9LBG2 1-267): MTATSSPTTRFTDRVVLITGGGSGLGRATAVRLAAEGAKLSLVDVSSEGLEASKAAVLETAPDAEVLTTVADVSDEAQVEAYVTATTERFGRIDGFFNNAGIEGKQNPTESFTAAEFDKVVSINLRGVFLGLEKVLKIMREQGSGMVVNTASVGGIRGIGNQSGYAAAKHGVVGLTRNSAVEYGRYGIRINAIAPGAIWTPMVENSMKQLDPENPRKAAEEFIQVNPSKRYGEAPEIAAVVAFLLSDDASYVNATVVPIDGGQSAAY
# Method: […] To this reaction mixture, 10 Al of a 0.5 M levodione solution were added five times at 6 minute intervals. The reaction mixture was incubated for a further 5 minutes, and extracted with 1 ml of ethyl acetate. The extract was analyzed by gas chromatography (column: HR-20M (Shinwa, Kyoto, Japan) 0.25 mm Ø×30 m), column temperature: 160° C. (constant), injector temperature: 250° C., carrier gas: He (about 1 ml/min.). As a result, the product was identified as being actinol in comparison with a standard sample of actinol.
# levodione reductase [3] = biological target: T1, levodione reductase; assay type: biochemical, Corynebacterium aquaticum AKU611
# Method: (§1) A basal reaction mixture having a total volume of 500 μl includes 100 μl of 1 M potassium phosphate buffer (pH 7.0), 20 μl of 8 mM NADH in 0.2 mM KOH, 10-40 μl of the enzyme solution (i.e., levodione reductase), and water up to a total of 500 μl . This reaction mixture was incubated for 1 minute at 37 ° C. Then, 2 μl of 0.5 M levodione solution were added to give a final concentration of 2 mM, and the whole mixture was incubated for 1 minute at 37 ° C. The levodione reductase enzyme activity was monitored with the decrease of the absorbance of NADH at 340 nm.
# levodione reductase [4] = biological target: T1, levodione reductase; experiment: Substrate specificity, standard LR enzyme assay (NADH decrease at 340 nm); assay type: biochemical, Corynebacterium aquaticum AKU611; details: for Enzyme Activity: substrate 2 mM final concentration instead of levodione
# Method: as §1
# In the present invention, one unit of the levodione reductase enzyme activity is defined as the amount of the levodione reductase which catalyzes the oxidation of 1 μmole of NADH per minute.
# The substrate specificity of the enzyme was determined using the same enzyme assay method as described under 1, except that various solutions containing different substrates (2 mM final concentration in the reaction mixture) were used instead of levodione.
# [5] = Table 4-1, + 3 mM NaCl, metal 100 mM
# [6] = Table 4-1, + 3 mM NaCl, metal 200 mM
# [7] = Table 4-1, + 3 mM NaCl, metal 400 mM
# [8] = Table 4-1, + 3 mM NaCl, metal 800 mM
# [9] = Table 4-1, + 3 mM NaCl, metal 1600 mM
# [10] = Table 4-1, + 3 mM NaCl, metal 1800 mM
# [11] = Table 4-1, + 3 mM NaCl, metal 2000 mM
# [12] = Table 4-1, + 3 mM NaCl, metal 2500 mM
# [13] = Table 4-1, + 3 mM NaCl, metal 3000 mM
compound,measurement,setting,value
"O=P(O)(O)O[C@H]1O[C@H](CO)[C@@H](O)[C@H](O)[C@H]1O [H10, Glucose-1-phosphate]",Assimilation,[1],−
NC(=O)C1=CN([C@@H]2O[C@H](COP(=O)(O)OP(=O)(O)OC[C@H]3O[C@@H](n4cnc5c(N)ncnc54)[C@H](O)[C@@H]3O)[C@@H](O)[C@H]2O)C=CC1 [NADH],function as co-factor / electron donor,levodione reductase [2],could serve as a co-factor
Cl.N [NH4Cl],Relative Activity,"levodione reductase [3]; Table 4-2, metal 100 mM",6.4%
same,Relative Activity,"levodione reductase [3]; Table 4-2, metal 200 mM",21.3%
same,Relative Activity,"levodione reductase [3]; Table 4-2, metal 400 mM",39.3%
same,Relative Activity,"levodione reductase [3]; Table 4-2, metal 800 mM",67.1%
same,Relative Activity,"levodione reductase [3]; Table 4-2, metal 1600 mM",100%
same,Relative Activity,"levodione reductase [3]; Table 4-2, metal 1800 mM",75.3%
"COC1OC(CO)C(O)C(O)C1O [D2, α-methyl-D-mannoside]",Assimilation,[1],−
NC(=O)C1=CN([C@@H]2O[C@H](COP(=O)(O)OP(=O)(O)OC[C@H]3O[C@@H](n4cnc5c(N)ncnc54)[C@H](OP(=O)(O)O)[C@@H]3O)[C@@H](O)[C@H]2O)C=CC1 [NADPH],actinol detected by gas chromatography,"levodione reductase [2]; NADH replaced with NADPH, 30° C.",only a trace amount of actinol was detected
same,function as co-factor / electron donor,levodione reductase [2],does not work as an electron donor; also recorded: could not
"OC[C@H]1O[C@H](O[C@H]2[C@H](O)[C@@H](O)[C@@H](O[C@H]3[C@H](O)[C@@H](O)C(O)O[C@@H]3CO)O[C@@H]2CO)[C@H](O)[C@@H](O)[C@@H]1O (mixture of isomers) [C4, Maltotriitrose]",Assimilation,[1],+
"CO[C@@H]1O[C@H](CO)[C@@H](O)[C@H](O)[C@H]1O [D1, β-methyl-D-glucoside]",Assimilation,[1],−
"C[C@H](O)C(=O)O [F3, L-lactic acid]",Assimilation,[1],−
"OC[C@H]1O[C@H](OC[C@H]2O[C@H](OC[C@H]3O[C@H](O[C@]4(CO)O[C@H](CO)[C@@H](O)[C@@H]4O)[C@H](O)[C@@H](O)[C@@H]3O)[C@H](O)[C@@H](O)[C@H]2O)[C@H](O)[C@@H](O)[C@H]1O [D11, Stachyose]",Assimilation,[1],+
"OC[C@H]1O[C@H](O[C@H]2O[C@H](CO)[C@@H](O)[C@H](O)[C@H]2O)[C@H](O)[C@@H](O)[C@@H]1O [E2, D-trehalose]",Assimilation,[1],−
"C[C@@H]1CC(=O)CC(C)(C)C1=O [Levodione, (6R)-2,2,6-trimethylcyclohexane-1,4-dione]",Enzyme Activity,levodione reductase [4],5.66 unit/ml
same,substrate specificity of the enzyme,levodione reductase [4]; substrates 2 mM,the only substrate for which the enzyme exhibited activity
"O[C@H]1[C@H](O)[C@@H](O)[C@H](O)[C@@H](O)[C@H]1O [B12, m-inositol]",Assimilation,[1],−
"O=C(O)C[C@H](O)C(=O)O [F5, L-malic acid]",Assimilation,[1],−
O=C1CCCCC1 [Cyclohexanone],Enzyme Activity,levodione reductase [4],Not detected (ND)
"OC[C@H]1O[C@@H]2O[C@H]3[C@H](O)[C@@H](O)[C@@H](O[C@H]4[C@H](O)[C@@H](O)[C@@H](O[C@H]5[C@H](O)[C@@H](O)[C@@H](O[C@H]6[C@H](O)[C@@H](O)[C@@H](O[C@H]7[C@H](O)[C@@H](O)[C@@H](O[C@H]8[C@H](O)[C@@H](O)[C@@H](O[C@H]1[C@H](O)[C@H]2O)O[C@@H]8CO)O[C@@H]7CO)O[C@@H]6CO)O[C@@H]5CO)O[C@@H]4CO)O[C@@H]3CO [A3, β-cyclodextrin]",Assimilation,[1],−
"COC1OC(CO)C(O)C(O)C1O [C10, α-methyl-D-galactoside]",Assimilation,[1],−
TWEEN ® 80 [A9],Assimilation,[1],+
"CO[C@H]1O[C@H](CO)[C@@H](O)[C@H](O)[C@H]1O [C12, α-methyl-D-glucoside]",Assimilation,[1],−
"OC[C@H]1O[C@@H]2O[C@H]3[C@H](O)[C@@H](O)[C@@H](O[C@H]4[C@H](O)[C@@H](O)[C@@H](O[C@H]5[C@H](O)[C@@H](O)[C@@H](O[C@H]6[C@H](O)[C@@H](O)[C@@H](O[C@H]7[C@H](O)[C@@H](O)[C@@H](O[C@H]1[C@H](O)[C@H]2O)O[C@@H]7CO)O[C@@H]6CO)O[C@@H]5CO)O[C@@H]4CO)O[C@@H]3CO [A2, α-cyclodextrin]",Assimilation,[1],−
[Cl-].[K+] [KCl],Relative Activity,"levodione reductase [3]; Table 4-2, metal 200 mM",11.5%
same,Relative Activity,"levodione reductase [3]; Table 4-2, metal 400 mM",22.2%
same,Relative Activity,"levodione reductase [3]; Table 4-2, metal 800 mM",40.5%
same,Relative Activity,"levodione reductase [3]; Table 4-2, metal 1600 mM",45.3%
same,Relative Activity,"levodione reductase [3]; Table 4-2, metal 1800 mM",33.5%
same,Relative Activity,"levodione reductase [3]; Table 4-2, metal 2000 mM",28.4%
same,Relative Activity,"levodione reductase [3]; Table 4-2, metal 2500 mM",25.9%
same,Relative Activity,"levodione reductase [3]; Table 4-2, metal 3000 mM",25.2%
Dextrin [A4],Assimilation,[1],−
Glycogen [A5],Assimilation,[1],−
"OC[C@@H](O)C(O)[C@H](O)CO [B2, D-arabitol]",Assimilation,[1],+
"NCCCCN [G10, Putrscine]",Assimilation,[1],−
[Cl-].[Cs+] [CsCl],increase of enzyme activity,levodione reductase [3]; 1.8 M CsCl,about 250 fold
same,Relative Activity,levodione reductase [3]; [5],5.9%
same,Relative Activity,levodione reductase [3]; [6],14.3%
same,Relative Activity,levodione reductase [3]; [7],28.3%
same,Relative Activity,levodione reductase [3]; [8],48.1%
same,Relative Activity,levodione reductase [3]; [9],71.4%
same,Relative Activity,levodione reductase [3]; [10],100%
same,Relative Activity,levodione reductase [3]; [11],86.8%
same,Relative Activity,levodione reductase [3]; [12],88.4%
same,Relative Activity,levodione reductase [3]; [13],88.0%
"O=C(CO)[C@@H](O[C@H]1O[C@H](CO)[C@@H](O)[C@H](O)[C@H]1O)[C@H](O)[C@H](O)CO [E3, Turanose]",Assimilation,[1],+
"O=C(O)C[C@@H](O)C(=O)O [F4, D-malic acid]",Assimilation,[1],−
TWEEN ® 40 [A8],Assimilation,[1],+
Mannan [A7],Assimilation,[1],−
[Cl-].[Na+] [NaCl],Relative Activity,"levodione reductase [3]; Table 4-1, Tris-HCl pH 7.5, metal 3 mM",0.4%
same,Relative Activity,"levodione reductase [3]; Table 4-2, metal 100 mM",4.2%
same,Relative Activity,"levodione reductase [3]; Table 4-2, metal 200 mM",7.7%
same,Relative Activity,"levodione reductase [3]; Table 4-2, metal 400 mM",19.7%
same,Relative Activity,"levodione reductase [3]; Table 4-2, metal 800 mM",35.9%
same,Relative Activity,"levodione reductase [3]; Table 4-2, metal 1600 mM",75.3%
same,Relative Activity,"levodione reductase [3]; Table 4-2, metal 1800 mM",62.8%
same,Relative Activity,"levodione reductase [3]; Table 4-2, metal 2000 mM",62.8%
same,Relative Activity,"levodione reductase [3]; Table 4-2, metal 2500 mM",53.9%
same,Relative Activity,"levodione reductase [3]; Table 4-2, metal 3000 mM",34.1%
"OC[C@@]12OC[C@@H](O1)[C@@H](O)[C@@H](O)[C@@H]2O [D9, Sedoheputulosan]",Assimilation,[1],−
"O=P(O)(O)OCC(O)CO (racemic) [H12, DL-α-glycerol phosphate]",Assimilation,[1],−
[Cl-].[Rb+] [RbCl],increase of enzyme activity,levodione reductase [3]; 3 M RbCl,about 250 fold
same,Relative Activity,levodione reductase [3]; [5],6.4%
same,Relative Activity,levodione reductase [3]; [6],7.5%
same,Relative Activity,levodione reductase [3]; [7],23.3%
same,Relative Activity,levodione reductase [3]; [8],32.6%
same,Relative Activity,levodione reductase [3]; [9],66.4%
same,Relative Activity,levodione reductase [3]; [10],65.1%
same,Relative Activity,levodione reductase [3]; [11],93.2%
same,Relative Activity,levodione reductase [3]; [12],93.3%
same,Relative Activity,levodione reductase [3]; [13],100%
"OC[C@H]1O[C@H](OC[C@H]2OC(O)(CO)[C@@H](O)[C@@H]2O)[C@H](O)[C@@H](O)[C@@H]1O (stereo partly drawn) [D3, Palatinose]",Assimilation,[1],+
"OC[C@H]1O[C@H](OC[C@H]2OC(O)[C@H](O)[C@@H](O)[C@@H]2O)[C@H](O)[C@@H](O)[C@H]1O (stereo partly drawn) [C8, D-melibiose]",Assimilation,[1],+
"OC[C@H]1O[C@H](OC[C@H]2O[C@H](O[C@]3(CO)O[C@H](CO)[C@@H](O)[C@@H]3O)[C@H](O)[C@@H](O)[C@@H]2O)[C@H](O)[C@@H](O)[C@H]1O [D5, D-raffinose]",Assimilation,[1],+
"COC1OC(CO)C(O)C(O)C1O [C9, α-methyl-D-galactoside]",Assimilation,[1],−
"O=C1CC[C@@H](C(=O)O)N1 [G8, L-pyloglutamic acid]",Assimilation,[1],−
Inulin [A6],Assimilation,[1],−
"OC[C@H]1O[C@@](CO)(O[C@H]2O[C@H](CO)[C@@H](O)[C@H](O)[C@H]2O)[C@@H](O[C@H]2O[C@H](CO)[C@@H](O)[C@H](O)[C@H]2O)[C@@H]1O [C7, D-melezitose]",Assimilation,[1],−
